The values below come from ChEMBL document CHEMBL3044582, “Nontraditional approaches to the synthesis of some biologically active substituted p-benzoquinones” (2008).

The structures appear in SMILES notation. Calls of active or inactive are those of the source. The rule behind the calls is not given here.

Holding throughout (type): functional
The test system of assay [1] is Aspergillus flavus. The assay can be described thus: Antifungal activity against Aspergillus flavus at 100 ug/ml after 48 hr by paper disk diffusion method. As to conditions: read-out: IZ. A general note: Agar diffusion results depend on both activity and mobility in agar.
Assay [2] has as its system Aspergillus flavus. As to the kind of experiment: Antifungal activity against Aspergillus flavus at 50 ug/ml after 48 hr by paper disk diffusion method. To be noted: read-out: IZ.
Assay [3] concerns Klebsiella aerogenes. The assay can be described thus: Antibacterial activity against Enterobacter aerogenesat 50 ug/ml after 24 hr by agar cup-plate method.
Assay [4] deals with Bacillus subtilis. The assay can be described thus: Antibacterial activity against Bacillus subtilis at 50 ug/ml after 24 hr by agar cup-plate method. As to conditions: read-out: DIZ.
In assay [5] the test system is Rhizopus arrhizus. The assay can be described thus: Antifungal activity against Rhizopus oryzae at 100 ug/ml after 48 hr by paper disk diffusion method. As to conditions: for zone of inhibition at 100 µg/mL: read-out: IZ.
Assay [6] concerns Rhizopus arrhizus. As to the kind of experiment: Antifungal activity against Rhizopus oryzae at 50 ug/ml after 48 hr by paper disk diffusion method. To be noted: for zone of inhibition at 50 µg/mL: read-out: IZ.
Assay [7] has as its system Aspergillus niger. The assay can be described thus: Antifungal activity against Aspergillus niger at 100 ug/ml after 48 hr by paper disk diffusion method. As to conditions: read-out: IZ.
In assay [8] the test system is Aspergillus niger. The assay can be described thus: Antifungal activity against Aspergillus niger at 50 ug/ml after 48 hr by paper disk diffusion method. To be noted: read-out: IZ.
Assay [9] concerns Paracoccus denitrificans. The assay can be described thus: Antibacterial activity against Paracoccus denitrificans at 50 ug/ml after 24 hr by agar cup-plate method. As to conditions: read-out: DIZ.
Assay [10] has as its system Pseudomonas syringae. The assay can be described thus: Antibacterial activity against Pseudomonas syringae at 50 ug/ml after 24 hr by agar cup-plate method. To be noted: read-out: DIZ.
Assay [11] relates to Bacillus subtilis. As to the kind of experiment: Antibacterial activity against Bacillus subtilis at 4 ug/ml after 24 hr by agar cup-plate method. To be noted: read-out: DIZ.
The subject of assay [12] is Klebsiella aerogenes. As to the kind of experiment: Antibacterial activity against Enterobacter aerogenes at 4 ug/ml after 24 hr by agar cup-plate method. As to conditions: read-out: DIZ.
Assay [13] has as its system Paracoccus denitrificans. As to the kind of experiment: Antibacterial activity against Paracoccus denitrificans at 4 ug/ml after 24 hr by agar cup-plate method. As to conditions: read-out: DIZ.
Assay [14] concerns Pseudomonas syringae. As to the kind of experiment: Antibacterial activity against Pseudomonas syringae at 4 ug/ml after 24 hr by agar cup-plate method. As to conditions: read-out: DIZ.

`O=C1C(Cl)=C(Nc2ccc(Cl)cc2)C(=O)C(Cl)=C1Nc1ccc(Cl)cc1`: the values for the zone of inhibition at 100 µg/mL with Aspergillus flavus [1], in the assay on Rhizopus arrhizus [5] and in the assay with Aspergillus niger [7] were 13 mm, 10 mm and 10 mm, respectively. In addition, the zone of inhibition at 50 µg/mL stood at 10 mm in the assay with Aspergillus flavus [2]; 10 mm with Bacillus subtilis [4]; 3 mm with Rhizopus arrhizus [6]; 10 mm with Aspergillus niger [8]; 10 mm in the assay with Paracoccus denitrificans [9]; 10 mm in the assay with Pseudomonas syringae [10]. For the same molecule, the “diameter of the inhibition zone (DIZ)” value in the assay with Klebsiella aerogenes [3] came to 13 mm.
As to `CCn1cc(C(=O)O)c(=O)c2cc(F)c(N3CCNCC3)cc21` [NORFLOXACIN], the zone of inhibition at 4 µg/mL is greater than 21 mm with Bacillus subtilis [11], greater than 21 mm in the assay on Klebsiella aerogenes [12], 13 mm with Paracoccus denitrificans [13] and greater than 21 mm in the assay on Pseudomonas syringae [14].
For `O=C1C(Cl)=C(Nc2ccccc2Cl)C(=O)C(Cl)=C1Nc1ccccc1Cl`, the zone of inhibition at 100 µg/mL with Aspergillus flavus [1], with Rhizopus arrhizus [5] and in the assay with Aspergillus niger [7] was 13 mm in each case. For the same molecule, the zone of inhibition at 50 µg/mL in the assay on Aspergillus flavus [2] was found to be 10 mm; in the assay with Bacillus subtilis [4], 13 mm; with Rhizopus arrhizus [6], 10 mm; with Aspergillus niger [8], 10 mm; with Paracoccus denitrificans [9], 13 mm; in the assay with Pseudomonas syringae [10], 10 mm. For the same molecule, the “diameter of the inhibition zone (DIZ)” value with Klebsiella aerogenes [3] was 10 mm.
Regarding `O=C1C(Cl)=C(Nc2ccc(F)cc2)C(=O)C(Cl)=C1Nc1ccc(F)cc1`, the values for the zone of inhibition at 100 µg/mL in the assay on Aspergillus flavus [1], in the assay on Rhizopus arrhizus [5] and in the assay with Aspergillus niger [7] were 13 mm, 13 mm and greater than 21 mm, respectively. Further, the zone of inhibition at 50 µg/mL with Aspergillus flavus [2] is 13 mm; with Bacillus subtilis [4], greater than 21 mm; in the assay with Rhizopus arrhizus [6] it was 10 mm; with Aspergillus niger [8] it was 13 mm; with Paracoccus denitrificans [9], 13 mm; in the assay with Pseudomonas syringae [10], 13 mm. In addition, the “diameter of the inhibition zone (DIZ)” value in the assay with Klebsiella aerogenes [3] was 10 mm.
As to `COc1ccc(NC2=C(Cl)C(=O)C(Nc3ccc(OC)cc3)=C(Cl)C2=O)cc1`, the figures for the zone of inhibition at 100 µg/mL with Aspergillus flavus [1], with Rhizopus arrhizus [5] and with Aspergillus niger [7] were 13 mm, 3 mm and 10 mm, respectively. Further, the zone of inhibition at 50 µg/mL came out at 10 mm with Aspergillus flavus [2]; 10 mm with Bacillus subtilis [4]; 3 mm in the assay on Aspergillus niger [8]; 13 mm in the assay on Paracoccus denitrificans [9]; 10 mm in the assay with Pseudomonas syringae [10]. In addition, the “diameter of the inhibition zone (DIZ)” value in the assay with Klebsiella aerogenes [3] was determined as 3 mm. For the same molecule, the “inhibition zone (IZ)” value in the assay on Rhizopus arrhizus [6] was “inactive”.
Take `COc1ccccc1NC1=C(Cl)C(=O)C(Nc2ccccc2OC)=C(Cl)C1=O`: the figures for the zone of inhibition at 100 µg/mL in the assay on Aspergillus flavus [1], with Rhizopus arrhizus [5] and in the assay with Aspergillus niger [7] were 10 mm, 10 mm and 13 mm, respectively. In addition, the zone of inhibition at 50 µg/mL in the assay with Aspergillus flavus [2] was 3 mm; in the assay on Bacillus subtilis [4], 3 mm; in the assay on Rhizopus arrhizus [6], 3 mm; in the assay on Aspergillus niger [8], 10 mm; with Paracoccus denitrificans [9], 13 mm; in the assay with Pseudomonas syringae [10], 3 mm. The “diameter of the inhibition zone (DIZ)” value in the assay with Klebsiella aerogenes [3] was 10 mm.
For the molecule `Cc1ccc(NC2=C(Cl)C(=O)C(Nc3ccc(C)cc3)=C(Cl)C2=O)cc1`, the zone of inhibition at 100 µg/mL in the assay on Aspergillus flavus [1] and in the assay on Aspergillus niger [7] was 10 mm each time. The zone of inhibition at 50 µg/mL in the assay on Aspergillus flavus [2] amounted to 3 mm; in the assay with Bacillus subtilis [4] it was 3 mm; in the assay on Aspergillus niger [8], 3 mm; in the assay with Paracoccus denitrificans [9], 10 mm; in the assay with Pseudomonas syringae [10], 3 mm. The “diameter of the inhibition zone (DIZ)” value in the assay on Klebsiella aerogenes [3] was “inactive”. Besides, the “inhibition zone (IZ)” value with Rhizopus arrhizus [5] and in the assay on Rhizopus arrhizus [6] was “inactive” each time.
As to `COC1=CC(=O)C[C@@H](C)[C@]12Oc1c(Cl)c(OC)cc(OC)c1C2=O` [GRISEOFULVIN], the zone of inhibition at 100 µg/mL in the assay on Aspergillus flavus [1], in the assay on Rhizopus arrhizus [5] and with Aspergillus niger [7] was greater than 21 mm each time. Also, the zone of inhibition at 50 µg/mL with Aspergillus flavus [2], in the assay with Rhizopus arrhizus [6] and in the assay with Aspergillus niger [8] was greater than 21 mm in each case.
As for `O=C1C(Cl)=C(Nc2ccccc2)C(=O)C(Cl)=C1Nc1ccccc1`, the zone of inhibition at 100 µg/mL in the assay on Aspergillus flavus [1] worked out at 3 mm; in the assay on Rhizopus arrhizus [5] it was 3 mm; with Aspergillus niger [7] it was 10 mm. The zone of inhibition at 50 µg/mL with Aspergillus flavus [2] is 3 mm; in the assay on Bacillus subtilis [4], 3 mm; in the assay with Aspergillus niger [8], 3 mm; with Paracoccus denitrificans [9], 10 mm; in the assay with Pseudomonas syringae [10], 10 mm. Also, the “diameter of the inhibition zone (DIZ)” value with Klebsiella aerogenes [3] was “inactive”. In addition, the “inhibition zone (IZ)” value with Rhizopus arrhizus [6] is “inactive”.
Take `O=C1C(Cl)=C(Nc2ccc(Br)cc2)C(=O)C(Cl)=C1Nc1ccc(Br)cc1`: the results for the zone of inhibition at 100 µg/mL in the assay on Aspergillus flavus [1], in the assay on Rhizopus arrhizus [5] and in the assay with Aspergillus niger [7] were 13 mm, 13 mm and greater than 21 mm, respectively. Also, the zone of inhibition at 50 µg/mL with Aspergillus flavus [2] was 10 mm; in the assay on Bacillus subtilis [4], 13 mm; with Rhizopus arrhizus [6] it was 3 mm; with Aspergillus niger [8], 10 mm; in the assay on Paracoccus denitrificans [9], 13 mm; in the assay with Pseudomonas syringae [10], 10 mm. Further, the “diameter of the inhibition zone (DIZ)” value in the assay on Klebsiella aerogenes [3] is on record as 10 mm.
Regarding `Cc1ccccc1NC1=C(Cl)C(=O)C(Nc2ccccc2C)=C(Cl)C1=O`, the zone of inhibition at 100 µg/mL in the assay with Aspergillus flavus [1] and in the assay with Aspergillus niger [7] was 3 mm in each case. Further, the zone of inhibition at 50 µg/mL in the assay with Aspergillus flavus [2], with Bacillus subtilis [4], in the assay with Aspergillus niger [8], in the assay with Paracoccus denitrificans [9] and in the assay on Pseudomonas syringae [10] was 3 mm each time. The “diameter of the inhibition zone (DIZ)” value in the assay on Klebsiella aerogenes [3] was found to be 3 mm. Moreover, the “inhibition zone (IZ)” value in the assay with Rhizopus arrhizus [5] and in the assay on Rhizopus arrhizus [6] was “inactive” in each case.
As for `O=C1C(Cl)=C(Nc2ccccc2F)C(=O)C(Cl)=C1Nc1ccccc1F`, the zone of inhibition at 100 µg/mL in the assay with Aspergillus flavus [1] was 13 mm; in the assay on Rhizopus arrhizus [5] it was 13 mm; in the assay with Aspergillus niger [7], greater than 21 mm. Besides, the zone of inhibition at 50 µg/mL is 10 mm with Aspergillus flavus [2]; greater than 21 mm in the assay with Bacillus subtilis [4]; 10 mm in the assay with Rhizopus arrhizus [6]; 13 mm in the assay with Aspergillus niger [8]; greater than 21 mm with Paracoccus denitrificans [9]; 13 mm in the assay on Pseudomonas syringae [10]. Besides, the “diameter of the inhibition zone (DIZ)” value in the assay on Klebsiella aerogenes [3] is 13 mm.
